Measurements taken from US12275733B2, “Substituted pyrido[3,4-b]indoles for the treatment of cartilage disorders” (Sanofi, priority 2016, dated 2025).

Tested on: ATDC5 cells
Assay: Chondrogenesis activity assay in ATDC5 cells (collagen type II induction, immunofluorescence)
Format: cell-based, mouse
Conditions: for EC50: collagen type II induction in ATDC5 cells, concentration reaching 50% of maximum induction; for Emax: maximum percent induction of collagen type II relative to internal reference compound at 10 μM, ATDC5 cells
How it was run: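 Collagen type II was stained in fixed, permeabilized cells with an Alexa Fluor 488 secondary and measured by high-content fluorescence imaging. ATDC5 cells had 4 days at 37 °C in insulin-supplemented differentiation medium with compound, typically 40 nM–10 μM, 0.1% DMSO. DMSO wells and a 10 μM internal reference compound were used for normalization.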

Compound | EC50 (Mus musculus) [nM] | Emax (Mus musculus) [%] | EC50 [nM]
Cc1nccc2c1[nH]c1c(-c3cnn(C)c3)cc(Cl)cc12 [Example 151, 6-Chloro-1-methyl-8-(1-methyl-1H-pyrazol-4-yl)-9H-pyrido[3,4-b]indole] | 540 | 50 to 80 | 
COC(=O)c1cc2c([nH]c3c(-c4ccc(OC)cc4)cc(Cl)cc32)c(C)n1 [Example 152, 6-Chloro-8-(4-methoxy-phenyl)-1-methyl-9H-pyrido[3,4-b]indole-3-carboxylic acid methyl ester] | 360 | < 20 | 
CCc1nccc2c1[nH]c1c(-c3ccc(OC)cc3)cc(Cl)cc12 [Example 153, 6-Chloro-1-ethyl-8-(4-methoxy-phenyl)-9H-pyrido[3,4-b]indole] | 4500 | 50 to 80 | 
Cc1nccc2c1[nH]c1c(-c3cnc(N)nc3)cc(Cl)cc12 [Example 154, 5-(6-Chloro-1-methyl-9H-pyrido[3,4-b]indol-8-yl)-pyrimidin-2-ylamine] | 8800 | 20 to 50 | 
COc1ccc(-c2cc(Cl)cc3c2[nH]c2c(C(F)(F)F)nccc23)cc1 [Example 155, 6-Chloro-8-(4-methoxy-phenyl)-1-trifluoromethyl-9H-pyrido[3,4-b]indole] | > 3300 | < 20 | 
Cc1nccc2c1[nH]c1c(-c3cnc(-n4cccc4)nc3)cc(Cl)cc12 [Example 156, 6-Chloro-1-methyl-8-(2-pyrrol-1-yl-pyrimidin-5-yl)-9H-pyrido[3,4-b]indole] | 1500 | < 20 | 
CNc1ncc(-c2cc(Cl)cc3c2[nH]c2c(C)nccc23)cn1 [Example 157, [5-(6-Chloro-1-methyl-9H-pyrido[3,4-b]indol-8-yl)-pyrimidin-2-yl]-methyl-amine] | > 10000 | 20 to 50 | 
Cc1nccc2c1[nH]c1c(-c3ccc(Cl)c(C#N)c3Cl)cc(Cl)cc12 [Example 158] | 1900 | > 80 | 
CC(C)n1cc(-c2cc(Cl)cc3c4ccncc4n(CC(F)(F)F)c23)cn1 [Example 160, 6-Chloro-8-(1-isopropyl-1H-pyrazol-4-yl)-9-(2,2,2-trifluoro-ethyl)-9H-pyrido[3,4-b]indole] | > 10000 | < 20 | 
CCCn1cc(-c2cc(Cl)cc3c4ccncc4n(CC(F)(F)F)c23)cn1 [Example 161, 6-Chloro-8-(1-propyl-1H-pyrazol-4-yl)-9-(2,2,2-trifluoro-ethyl)-9H-pyrido[3,4-b]indole] | 2000 | > 80 | 
FC(F)(F)Cn1c2cnccc2c2cc(Cl)cc(-c3cnn(Cc4ccccc4)c3)c21 [Example 162, 8-(1-Benzyl-1H-pyrazol-4-yl)-6-chloro-9-(2,2,2-trifluoro-ethyl)-9H-pyrido[3,4-b]indole] | 590 | > 80 | 
CC(=O)OCCn1cc(-c2cc(Cl)cc3c4ccncc4n(CC(F)(F)F)c23)cn1 [Example 163, Acetic acid 2-(4-[6-chloro-9-(2,2,2-trifluoro-ethyl)-9H-pyrido[3,4-b]indol-8-yl]-pyrazol-1-yl)-ethyl ester] | 690 | > 80 | 
CCn1c2c(-c3cnn(C)c3)cc(Cl)cc2c2ccnc(C)c21 [Example 164, 6-Chloro-9-ethyl-1-methyl-8-(1-methyl-1H-pyrazol-4-yl)-9H-pyrido[3,4-b]indole] | 230 | > 80 | 
Cn1ccc(-c2cc(Cl)cc3c4ccncc4n(CC(F)(F)F)c23)c1 [Example 165, 6-Chloro-8-(1-methyl-1H-pyrrol-3-yl)-9-(2,2,2-trifluoro-ethyl)-9H-pyrido[3,4-b]indole] | > 10000 | < 20 | 
FC(F)(F)Cn1c2cnccc2c2cc(Cl)cc(-c3cnn(Cc4cccs4)c3)c21 [Example 166, 6-Chloro-8-(1-thiophen-2-ylmethyl-1H-pyrazol-4-yl)-9-(2,2,2-trifluoro-ethyl)-9H-pyrido[3,4-b]indole] | 840 | > 80 | 
FC(F)(F)Cn1c2cnccc2c2cc(Cl)cc(-c3cnn(Cc4ccccn4)c3)c21 [Example 168, 6-Chloro-8-(1-pyridin-2-ylmethyl-1H-pyrazol-4-yl)-9-(2,2,2-trifluoro-ethyl)-9H-pyrido[3,4-b]indole] | 990 | > 80 | 
COCCn1cc(-c2cc(Cl)cc3c4ccncc4n(CC(F)(F)F)c23)cn1 [Example 169, 6-Chloro-8-[1-(2-methoxy-ethyl)-1H-pyrazol-4-yl]-9-(2,2,2-trifluoro-ethyl)-9H-pyrido[3,4-b]indole] | 1300 |  | 1100
FC(F)(F)Cn1c2cnccc2c2cc(Cl)cc(-c3cnc(-c4ccccc4)s3)c21 [Example 170, 6-Chloro-8-(2-phenyl-thiazol-5-yl)-9-(2,2,2-trifluoro-ethyl)-9H-pyrido[3,4-b]indole] | > 10000 | 20 to 50 | 
COc1ccc(-c2cc(Cl)cc3c2[nH]c2c(C)nccc23)cc1OC [Example 172, 6-Chloro-8-(3,4-dimethoxy-phenyl)-1-methyl-9H-pyrido[3,4-b]indole] | > 10000 | 20 to 50 | 

Compound | EC50 (Mus musculus) [nM] | Emax (Mus musculus) [%] | EC50 [nM]
FC(F)(F)Cn1c2cnccc2c2cc(Cl)cc(-c3cnn(CC4CC4)c3)c21 [Example 173, 6-Chloro-8-(1-cyclopropylmethyl-1H-pyrazol-4-yl)-9-(2,2,2-trifluoro-ethyl)-9H-pyrido[3,4-b]indole] | 1900 | > 80 | 
FC(F)(F)Cn1c2cnccc2c2cc(Cl)cc(-c3cnc(C4CC4)s3)c21 [Example 174, 6-Chloro-8-(2-cyclopropyl-thiazol-5-yl)-9-(2,2,2-trifluoro-ethyl)-9H-pyrido[3,4-b]indole] | 7300 | 50 to 80 | 
COc1cc(OC)c(-c2cc(Cl)cc3c2[nH]c2c(C)nccc23)c(OC)c1 [Example 175, 6-Chloro-1-methyl-8-(2,4,6-trimethoxy-phenyl)-9H-pyrido[3,4-b]indole] | > 10000 | < 20 | 
Cc1cc(OC(C)C)ccc1-c1cc(Cl)cc2c1[nH]c1c(C)nccc12 [Example 176, 6-Chloro-8-(4-isopropoxy-2-methyl-phenyl)-1-methyl-9H-pyrido[3,4-b]indole] | > 10000 | 20 to 50 | 
Cc1nccc2c1[nH]c1c(-c3ccc(OCc4ccccc4)cc3)cc(Cl)cc12 [Example 177, 8-(4-Benzyloxy-phenyl)-6-chloro-1-methyl-9H-pyrido[3,4-b]indole] | > 10000 | 20 to 50 | 
COc1ccc(-c2cc(Cl)cc3c2[nH]c2c(C)nccc23)c(OC)c1OC [Example 178, 6-Chloro-1-methyl-8-(2,3,4-trimethoxy-phenyl)-9H-pyrido[3,4-b]indole] | > 10000 | 20 to 50 | 
Cc1nccc2c1[nH]c1c(-c3ccc4c(c3)CCO4)cc(Cl)cc12 [Example 179, 6-Chloro-8-(2,3-dihydro-benzofuran-5-yl)-1-methyl-9H-pyrido[3,4-b]indole] | > 10000 | > 80 | 
COc1ccc(-c2cc(Cl)cc3c2[nH]c2c(C)nccc23)cc1O [Example 180, 5-(6-Chloro-1-methyl-9H-pyrido[3,4-b]indol-8-yl)-2-methoxy-phenol] | 330 | > 80 | 
Cc1nccc2c1[nH]c1c(-c3ccc(OCC4CC4)cc3)cc(Cl)cc12 [Example 181, 6-Chloro-8-(4-cyclopropylmethoxy-phenyl)-1-methyl-9H-pyrido[3,4-b]indole] | 2100 | > 80 | 
Cc1nccc2c1[nH]c1c(-c3ccc(OCC4(C)COC4)cc3)cc(Cl)cc12 [Example 182, 6-Chloro-1-methyl-8-[4-(3-methyl-oxetan-3-ylmethoxy)-phenyl]-9H-pyrido[3,4-b]indole] | 220 | > 80 | 
Cc1nccc2c1[nH]c1c(-c3ccc(OC4CC4)cc3)cc(Cl)cc12 [Example 183, 6-Chloro-8-(4-cyclopropoxy-phenyl)-1-methyl-9H-pyrido[3,4-b]indole] | 2300 | 50 to 80 | 
COc1ccc(-c2cc(Cl)cc3c2[nH]c2c(C)nccc23)cc1OCc1ccccc1 [Example 185, 8-(3-Benzyloxy-4-methoxy-phenyl)-6-chloro-1-methyl-9H-pyrido[3,4-b]indole] | > 10000 | 20 to 50 | 
COc1ccc(-c2cc(Cl)cc3c2[nH]c2c(C)nccc23)cc1N [Example 186, 5-(6-Chloro-1-methyl-9H-pyrido[3,4-b]indol-8-yl)-2-methoxy-phenylamine] | 100 | > 80 | 
COc1ccc(-c2cc(Cl)cc3c2[nH]c2c(C)nccc23)c(C)c1C [Example 187, 6-Chloro-8-(4-methoxy-2,3-dimethyl-phenyl)-1-methyl-9H-pyrido[3,4-b]indole] | 2200 | > 80 | 
COc1ccc(-c2cc(Br)cc3c2[nH]c2c(C)nccc23)cc1 [Example 188, 6-Bromo-8-(4-methoxy-phenyl)-1-methyl-9H-pyrido[3,4-b]indole] | 640 | > 80 | 
Cc1nccc2c1[nH]c1c(-c3ccc(Cl)cc3)cc(Cl)cc12 [Example 189, 6-Chloro-8-(4-chloro-phenyl)-1-methyl-9H-pyrido[3,4-b]indole] | 500 | > 80 | 
Cc1nccc2c1[nH]c1c(-c3ccc(Cl)cc3Cl)cc(Cl)cc12 [Example 190, 6-Chloro-8-(2,4-dichloro-phenyl)-1-methyl-9H-pyrido[3,4-b]indole] | 720 | > 80 | 
COc1ccc(-c2cc(Cl)cc3c2[nH]c2cnccc23)cc1 [Example 191, 6-Chloro-8-(4-methoxy-phenyl)-9H-pyrido[3,4-b]indole] | 550 | > 80 | 
CCOc1ccc(-c2cc(Cl)cc3c2[nH]c2c(C)nccc23)cc1 [Example 192, 6-Chloro-8-(4-ethoxy-phenyl)-1-methyl-9H-pyrido[3,4-b]indole] | 640 | > 80 | 
